Laboratory results reported in patent US20230339981A1, “KRAS G12D MODULATING COMPOUNDS” (priority 2022, published 2023).

Columns and labels:
GDP-loaded KRAS G12D = GDP-loaded KRAS G12D (Homo sapiens (Human), UniProt P01116, G12D); test: KRAS G12D (GDP) biochemical assay (TR-FRET probe displacement); type: binding; details: 2 hours
In short: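 TR-FRET probe displacement: 1:3 DMSO serial dilutions pre-incubated 30 min with GDP-bound KRAS G12D, followed by Eu-streptavidin/probe for 2 h at room temperature (Hepes pH 7.4, NaCl, MgCl2, Tween-20 buffer). IC50 defined as concentration halving TR-FRET ratio, from sigmoidal dose-response fit.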

AsPC-1 (KRAS G12D) cells = test: 3D cell viability assay (spheroids, CellTiter-Glo 3D); type: cell-based; details: Homo sapiens, ASPC1, 96 h, AsPC-1 cells, 3D spheroids, 4 days
In short: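 AsPC-1 cells (1000/well) in DMEM with 10% FBS formed spheroids over 3 days at 37 °C in ultra-low attachment plates, then were treated with 1:3 serial dilutions for 4 days. Viability read by CellTiter-Glo 3D luminescence; EC50 as concentration giving 50% signal decrease, sigmoidal fit.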

GP2D (KRAS G12D) cells = test: 2D cell viability assay (CellTiter-Glo); type: cell-based; details: GP2d, 96 h, 4 days
In short: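 Viability was read by CellTiter-Glo after 4 days at 37 °C of 2D culture of KRAS G12D GP2D cells (1000/well, RPMI, 10% FBS) on pre-spotted threefold compound dilutions. EC50 was fitted with a sigmoidal dose-response model as the point of half-maximal luminescence loss.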

Sequence of GDP-loaded KRAS G12D (P01116-2 other isoform, or with tags, fused parts or gaps G12D): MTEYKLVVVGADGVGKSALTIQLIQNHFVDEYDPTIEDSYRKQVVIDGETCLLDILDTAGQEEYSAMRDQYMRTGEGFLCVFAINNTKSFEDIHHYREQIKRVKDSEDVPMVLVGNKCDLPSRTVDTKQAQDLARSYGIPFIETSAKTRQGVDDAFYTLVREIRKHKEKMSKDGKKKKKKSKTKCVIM

Row | Compound | IC50 (GDP-loaded KRAS G12D) | EC50 (AsPC-1 (KRAS G12D) cells) | EC50 (GP2D (KRAS G12D) cells)
1 | C#Cc1c(F)ccc2cc(O)cc(-c3nc4c5c(nc(OCC6(CN7CCC(OC(F)(F)F)CC7)CC6)nc5c3F)N3C[C@H]5CC[C@H](N5)[C@H]3CCC4)c12 [Example 161, 5-ethynyl-6-fluoro-4-((6aR,7S,10R)-1-fluoro-13-((1-((4-(trifluoromethoxy)piperidin-1-yl)methyl)cyclopropyl)methoxy)-5,6,6a,7,8,9,10,11-octahydro-4H-3,11a,12,14,15-pentaaza-7,10-methanocyclohepta[4,5]cycloocta[1,2,3-de]naphthalen-2-yl)naphthalen-2-ol] | 0.3 nM | 23 nM | 0.3 nM
2 | C#Cc1c(F)ccc2cc(O)cc(-c3nc4c5c(nc(OC[C@@]67CCCN6[C@H](CF)CC7)nc5c3F)N3C[C@H]5CC[C@H](N5)[C@H]3CC4)c12 [Example 165, 5-ethynyl-6-fluoro-4-((5aR,6S,9R)-1-fluoro-12-(((3S,7aS)-3-(fluoromethyl)tetrahydro-1H-pyrrolizin-7a(5H)-yl)methoxy)-4,5,5a,6,7,8,9,10-octahydro-3,10a,11,13,14-pentaaza-6,9-methanonaphtho[1,8-ab]heptalen-2-yl)naphthalen-2-ol] | < 0.1 nM | 3.9 nM | 0.7 nM
3 | C#Cc1c(F)ccc2cccc(-c3nc4c5c(nc(OC[C@@]67CCCN6[C@H](CF)CC7)nc5c3F)N3C[C@H]5CC[C@H](N5)[C@H]3CC4)c12 [Example 166, (5aR,6S,9R)-2-(8-ethynyl-7-fluoronaphthalen-1-yl)-1-fluoro-12-(((3S,7aS)-3-(fluoromethyl)tetrahydro-1H-pyrrolizin-7a(5H)-yl)methoxy)-4,5,5a,6,7,8,9,10-octahydro-3,10a,11,13,14-pentaaza-6,9-methanonaphtho[1,8-ab]heptalene] | 0.3 nM | 110 nM | 3.5 nM
4 | C#Cc1c(F)ccc2cc(O)cc(-c3nc4c5c(nc(OCC6(CN7CCC(CC(F)(F)F)CC7)CC6)nc5c3F)N3C[C@H]5CC[C@H](N5)[C@H]3CC4)c12 [Example 167, 5-ethynyl-6-fluoro-4-((5aR,6S,9R)-1-fluoro-12-((1-((4-(2,2,2-trifluoroethyl)piperidin-1-yl)methyl)cyclopropyl)methoxy)-4,5,5a,6,7,8,9,10-octahydro-3,10a,11,13,14-pentaaza-6,9-methanonaphtho[1,8-ab]heptalen-2-yl)naphthalen-2-ol] | < 0.1 nM | 32 nM | 0.7 nM
5 | C#Cc1c(F)ccc2cc(O)cc(-c3nc4c5c(nc(OCC6(CN7CCC(OC)(C(F)(F)F)CC7)CC6)nc5c3F)N3C[C@H]5CC[C@H](N5)[C@H]3CC4)c12 [Example 168, 5-ethynyl-6-fluoro-4-((5aR,6S,9R)-1-fluoro-12-((1-((4-methoxy-4-(trifluoromethyl)piperidin-1-yl)methyl)cyclopropyl)methoxy)-4,5,5a,6,7,8,9,10-octahydro-3,10a,11,13,14-pentaaza-6,9-methanonaphtho[1,8-ab]heptalen-2-yl)naphthalen-2-ol] | 0.2 nM | 24 nM | 0.5 nM
6 | C#Cc1c(F)ccc2cccc(-c3nc4c5c(nc(OC[C@@]67CCCN6C[C@H](F)C7)nc5c3F)N3C[C@H]5CC[C@H](N5)[C@H]3[C@H](CC)O4)c12 [Example 169, (5S,5aS,6S,9R)-5-ethyl-2-(8-ethynyl-7-fluoronaphthalen-1-yl)-1-fluoro-12-(((2R,7aS)-2-fluorotetrahydro-1H-pyrrolizin-7a(5H)-yl)methoxy)-5a,6,7,8,9,10-hexahydro-5H-4-oxa-3,10a,11,13,14-pentaaza-6,9-methanonaphtho[1,8-ab]heptalene] | 0.8 nM | 190 nM | 26.5 nM
7 | C#Cc1c(F)ccc2cccc(-c3nc4c5c(nc(OC[C@@]67CCCN6C[C@H](F)C7)nc5c3F)N3C[C@H]5CC[C@H](N5)[C@@H]3CC4)c12 [Example 170, (5aS,6S,9R)-2-(8-ethynyl-7-fluoronaphthalen-1-yl)-1-fluoro-12-(((2R,7aS)-2-fluorotetrahydro-1H-pyrrolizin-7a(5H)-yl)methoxy)-4,5,5a,6,7,8,9,10-octahydro-3,10a,11,13,14-pentaaza-6,9-methanonaphtho[1,8-ab]heptalene] | 18.1 nM | > 1000 nM | 100 nM
8 | C#Cc1c(F)ccc2cccc(-c3nc4c5c(nc(OC[C@@]67CCCN6C[C@H](F)C7)nc5c3F)N3C[C@H]5CC[C@H](N5)[C@H]3CC[C@H]4C)c12 [Example 171, (4R,6aR,7S,10R)-2-(8-ethynyl-7-fluoronaphthalen-1-yl)-1-fluoro-13-(((2R,7aS)-2-fluorotetrahydro-1H-pyrrolizin-7a(5H)-yl)methoxy)-4-methyl-5,6,6a,7,8,9,10,11-octahydro-4H-3,11a,12,14,15-pentaaza-7,10-methanocyclohepta[4,5]cycloocta[1,2,3-de]naphthalene] | < 0.1 nM | 120 nM | 1.9 nM
9 | C#Cc1c(F)ccc2cccc(-c3nc4c5c(nc(OC[C@@]67CCCN6C[C@H](F)C7)nc5c3F)N3C[C@H]5CC[C@H](N5)[C@H]3C[C@@H]4F)c12 [Example 172, (4S,5aR,6S,9R)-2-(8-ethynyl-7-fluoronaphthalen-1-yl)-1,4-difluoro-12-(((2R,7aS)-2-fluorotetrahydro-1H-pyrrolizin-7a(5H)-yl)methoxy)-4,5,5a,6,7,8,9,10-octahydro-3,10a,11,13,14-pentaaza-6,9-methanonaphtho[1,8-ab]heptalene] | 3.5 nM | 480 nM | 65.3 nM
10 | C#Cc1c(F)ccc2cccc(-c3nc4c5c(nc(OC[C@@]67CCCN6C[C@H](F)C7)nc5c3F)N3C[C@H]5CC[C@H](N5)[C@H]3C[C@H]4F)c12 [Example 173, (4R,5aR,6S,9R)-2-(8-ethynyl-7-fluoronaphthalen-1-yl)-1,4-difluoro-12-(((2R,7aS)-2-fluorotetrahydro-1H-pyrrolizin-7a(5H)-yl)methoxy)-4,5,5a,6,7,8,9,10-octahydro-3,10a,11,13,14-pentaaza-6,9-methanonaphtho[1,8-ab]heptalene] | < 0.1 nM | 100 nM | 4.2 nM
11 | C#Cc1c(F)ccc2cccc(-c3nc4c5c(nc(OC[C@@]67CCCN6C[C@H](F)C7)nc5c3F)N3C[C@H]5CC[C@H](N5)[C@H]3C[C@@H]4CC)c12 [Example 175, (4S,5aR,6S,9R)-4-ethyl-2-(8-ethynyl-7-fluoronaphthalen-1-yl)-1-fluoro-12-(((2R,7aS)-2-fluorotetrahydro-1H-pyrrolizin-7a(5H)-yl)methoxy)-4,5,5a,6,7,8,9,10-octahydro-3,10a,11,13,14-pentaaza-6,9-methanonaphtho[1,8-ab]heptalene] | 0.5 nM | 150 nM | 11.9 nM
12 | C#Cc1c(F)ccc2cc(O)cc(-c3nc4c5c(nc(OCC6(CN7CC8CC8C7)CC6)nc5c3F)N3C[C@H]5CC[C@H](N5)[C@H]3CC4)c12 (stereo partly drawn) [Example 176, 4-((5aR,6S,9R)-12-((1-((3-azabicyclo[3.1.0]hexan-3-yl)methyl)cyclopropyl)methoxy)-1-fluoro-4,5,5a,6,7,8,9,10-octahydro-3,10a,11,13,14-pentaaza-6,9-methanonaphtho[1,8-ab]heptalen-2-yl)-5-ethynyl-6-fluoronaphthalen-2-ol] | 0.1 nM | 9.8 nM | 0.4 nM
